Assay results taken from patent US5849753A, “Pyridyl imidazole derivatives and processes for the preparation thereof” (Korea Research Institute of Chemical Technology, priority 1994, dated 1998).

Key:
[1] = test system: angiotensin II receptor; assay: Angiotensin II Receptor Binding Assay ([3H] angiotensin II binding inhibition); details: [3H] angiotensin II ligand; 60 minutes, 25° C.; test concentration not given
Procedure, shortened: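 Rat membranes (SD adrenal cortex or medulla, Wistar liver) in 50 mM Tris pH 7.2, 5 mM MgCl2, 0.25% BSA were incubated with [3H]angiotensin II and test compound at graded concentrations for 60 min at 25 °C. Bound radioactivity was collected by GF/C filtration and scintillation counting, and percent binding inhibition was calculated versus untreated and blank.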

[2] = Metabolite analysis (enzyme digestion test); format: in vitro ADME, male rats; details: rat liver microsome and NADPH, 1 hour, 37° C.
Experimental: Enzyme digestion test was executed in order to detect the metabolite of the test compound in vivo.
A liver microsome and NADPH system of male rats were added to each of the present compound(Example 8) and the control compound(Merck), and the mixture was incubated for 1 hour at 37° C. The resultant was extracted with methanol or dichloromethane, and, thereafter, the organic layer was evaporated to obtain a residue. The residue was analyzed using high pressure liquid chromatography.

- Binding Inhibition(%) [1]: 93.4%
- metabolite from the enzymatic digestion ([2]; HPLC): no metabolite
- stability against the enzymatic digestion ([2]; in contrast with the Merck compound): good stability
SMILES: CCCCc1nc2cc(-c3ccccn3)c(C(OC)OC)nc2n1Cc1ccc(-c2ccccc2-c2nnn[nH]2)cc1 [Example 8, 2-butyl-5-dimethoxymethyl-6-(pyridin-2-yl)-3-[2'-(1H-tetrazol-5-yl)-biphenyl-4-ylmethyl]-3H-imidazo[4,5-b]pyridine]
